Data published in the supplement of paper PMC4862054.

The molecules below were run on HDQ-P1 (assay: normalised response (% of control), CellTox Green; higher = less cell death (100 = DMSO, 0 = benzethonium chloride kill control)). Conditions: incubation time: 72 h.
Method in brief: (§1)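 Breast cancer cell lines in 20 µl suspension were added to 384-well plates containing compound at 5 concentrations, spaced in 10-fold steps across a 10,000-fold range chosen for each compound, and incubated for 72 h. CellTox Green fluorescence was read at 485/520 nm, followed by CellTiter-Glo luminescence after 10 min at room temperature. Signals on each plate were normalised so that 0.1 % DMSO equals 100 and a positive kill control equals 0. Every value in the table is the normalised signal at one concentration of the series.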
For CCCCCCCCc1ccc(CCC(N)(CO)CO)cc1 [Fingolimod] (1000 nM), the normalised response was 89%.
CNNCc1ccc(C(=O)NC(C)C)cc1 [Procarbazine] (1000 nM) gave a normalised response of 104%.
For O=C(O)CCCc1ccc(N(CCCl)CCCl)cc1 [Chlorambucil] (1000 nM), the normalised response was 103%.
In the case of Nc1ncnc2c1c(COc1cccc(Cl)c1)nn2C1CCOCC1 (1000 nM), the normalised response was 114%.
Nc1nc(OCc2cc(Br)cs2)c2[nH]cnc2n1 [Lomeguatrib] (1000 nM) gave a normalised response of 112%.
Molecule CN(C)CCN1C(=O)c2cccc3cc(N)cc(c23)C1=O [Amonafide] (1000 nM) has a normalised response of 106%.

What follows are molecules tested on CAL-85-1 in the same assay as above. Conditions: incubation time: 72 h.
Method in brief: as §1
Work on c1ccc([C@H]2CN3CCSC3=N2)cc1 [Levamisole] (1000 nM) yielded a normalised response of 107%.
CN(C)C[C@@H]1CCn2cc(c3ccccc32)C2=C(C(=O)NC2=O)c2cn(c3ccccc23)CCO1 [Ruboxistaurin] (1000 nM) was tested, and the normalised response was 111%.
In the case of CCCCCCCCc1ccc(CCC(N)(CO)CO)cc1 [Fingolimod] (1000 nM), the normalised response was 101%.
CNNCc1ccc(C(=O)NC(C)C)cc1 [Procarbazine] (1000 nM) showed a normalised response of 95.4%.
O=C1NC(=O)[C@@H](c2cn3c4c(cccc24)CCC3)[C@@H]1c1c[nH]c2ccccc12 [Tivantinib] (100 nM) gave a normalised response of 93.4%.
Work on O=C(O)CCCc1ccc(N(CCCl)CCCl)cc1 [Chlorambucil] (1000 nM) yielded a normalised response of 110%.
With Nc1ncnc2c1c(COc1cccc(Cl)c1)nn2C1CCOCC1 (1000 nM) the normalised response was 108%.
Nc1nc(OCc2cc(Br)cs2)c2[nH]cnc2n1 [Lomeguatrib] (1000 nM) gave a normalised response of 98.9%.
Molecule CN(C)CCN1C(=O)c2cccc3cc(N)cc(c23)C1=O [Amonafide] (1000 nM) has a normalised response of 100%.

Each molecule was assayed on MDA-MB-453 in the same assay as above. Conditions: incubation time: 72 h.
Method in brief: as §1
c1ccc([C@H]2CN3CCSC3=N2)cc1 [Levamisole] (1000 nM) showed a normalised response of 96.9%.
With CN(C)C[C@@H]1CCn2cc(c3ccccc32)C2=C(C(=O)NC2=O)c2cn(c3ccccc23)CCO1 [Ruboxistaurin] (1000 nM) the normalised response was 95.9%.
With CCCCCCCCc1ccc(CCC(N)(CO)CO)cc1 [Fingolimod] (1000 nM) the normalised response was 103%.
CNNCc1ccc(C(=O)NC(C)C)cc1 [Procarbazine] (1000 nM) gave a normalised response of 70.8%.
O=C1NC(=O)[C@@H](c2cn3c4c(cccc24)CCC3)[C@@H]1c1c[nH]c2ccccc12 [Tivantinib] (100 nM) showed a normalised response of 104%.
O=C(O)CCCc1ccc(N(CCCl)CCCl)cc1 [Chlorambucil] (1000 nM) was tested, and the normalised response was 100%.
Work on Nc1ncnc2c1c(COc1cccc(Cl)c1)nn2C1CCOCC1 (1000 nM) yielded a normalised response of 110%.
Molecule Nc1nc(OCc2cc(Br)cs2)c2[nH]cnc2n1 [Lomeguatrib] (1000 nM) has a normalised response of 103%.
CN(C)CCN1C(=O)c2cccc3cc(N)cc(c23)C1=O [Amonafide] (1000 nM) showed a normalised response of 106%.

These molecules were tested on CAL-120 in the same assay as above. Conditions: incubation time: 72 h.
Method in brief: as §1
Molecule c1ccc([C@H]2CN3CCSC3=N2)cc1 [Levamisole] (1000 nM) has a normalised response of 100%.
For CN(C)C[C@@H]1CCn2cc(c3ccccc32)C2=C(C(=O)NC2=O)c2cn(c3ccccc23)CCO1 [Ruboxistaurin] (1000 nM), the normalised response was 98.7%.
CCCCCCCCc1ccc(CCC(N)(CO)CO)cc1 [Fingolimod] (1000 nM) showed a normalised response of 99.4%.
CNNCc1ccc(C(=O)NC(C)C)cc1 [Procarbazine] (1000 nM) showed a normalised response of 106%.
O=C1NC(=O)[C@@H](c2cn3c4c(cccc24)CCC3)[C@@H]1c1c[nH]c2ccccc12 [Tivantinib] (100 nM) gave a normalised response of 97.9%.
For O=C(O)CCCc1ccc(N(CCCl)CCCl)cc1 [Chlorambucil] (1000 nM), the normalised response was 98.5%.
In the case of Nc1ncnc2c1c(COc1cccc(Cl)c1)nn2C1CCOCC1 (1000 nM), the normalised response was 103%.
Nc1nc(OCc2cc(Br)cs2)c2[nH]cnc2n1 [Lomeguatrib] (1000 nM) gave a normalised response of 102%.
Work on CN(C)CCN1C(=O)c2cccc3cc(N)cc(c23)C1=O [Amonafide] (1000 nM) yielded a normalised response of 98.9%.

What follows are molecules tested on MDA-MB-436 in the same assay as above. Conditions: incubation time: 72 h.
Method in brief: as §1
Work on c1ccc([C@H]2CN3CCSC3=N2)cc1 [Levamisole] (1000 nM) yielded a normalised response of 85%.
CN(C)C[C@@H]1CCn2cc(c3ccccc32)C2=C(C(=O)NC2=O)c2cn(c3ccccc23)CCO1 [Ruboxistaurin] (1000 nM) was tested, and the normalised response was 106%.
CCCCCCCCc1ccc(CCC(N)(CO)CO)cc1 [Fingolimod] (1000 nM) gave a normalised response of 90.6%.
For CNNCc1ccc(C(=O)NC(C)C)cc1 [Procarbazine] (1000 nM), the normalised response was 98%.
O=C1NC(=O)[C@@H](c2cn3c4c(cccc24)CCC3)[C@@H]1c1c[nH]c2ccccc12 [Tivantinib] (100 nM) showed a normalised response of 91.5%.
With O=C(O)CCCc1ccc(N(CCCl)CCCl)cc1 [Chlorambucil] (1000 nM) the normalised response was 93.3%.
Molecule Nc1ncnc2c1c(COc1cccc(Cl)c1)nn2C1CCOCC1 (1000 nM) has a normalised response of 107%.

What follows are molecules tested on MDA-MB-468 in the same assay as above. Conditions: incubation time: 72 h.
Method in brief: as §1
c1ccc([C@H]2CN3CCSC3=N2)cc1 [Levamisole] (1000 nM) showed a normalised response of 68.7%.
With CN(C)C[C@@H]1CCn2cc(c3ccccc32)C2=C(C(=O)NC2=O)c2cn(c3ccccc23)CCO1 [Ruboxistaurin] (1000 nM) the normalised response was 122%.
Molecule CCCCCCCCc1ccc(CCC(N)(CO)CO)cc1 [Fingolimod] (1000 nM) has a normalised response of 160%.
CNNCc1ccc(C(=O)NC(C)C)cc1 [Procarbazine] (1000 nM) was tested, and the normalised response was 84%.
In the case of O=C1NC(=O)[C@@H](c2cn3c4c(cccc24)CCC3)[C@@H]1c1c[nH]c2ccccc12 [Tivantinib] (100 nM), the normalised response was 116%.
For O=C(O)CCCc1ccc(N(CCCl)CCCl)cc1 [Chlorambucil] (1000 nM), the normalised response was 103%.
Nc1ncnc2c1c(COc1cccc(Cl)c1)nn2C1CCOCC1 (1000 nM) was tested, and the normalised response was 99.3%.
For Nc1nc(OCc2cc(Br)cs2)c2[nH]cnc2n1 [Lomeguatrib] (1000 nM), the normalised response was 139%.
With CN(C)CCN1C(=O)c2cccc3cc(N)cc(c23)C1=O [Amonafide] (1000 nM) the normalised response was 52%.

These molecules were tested on BT-474 in the same assay as above. Conditions: incubation time: 72 h.
Method in brief: as §1
For c1ccc([C@H]2CN3CCSC3=N2)cc1 [Levamisole] (1000 nM), the normalised response was 102%.
With CCCCCCCCc1ccc(CCC(N)(CO)CO)cc1 [Fingolimod] (1000 nM) the normalised response was 103%.
Molecule CNNCc1ccc(C(=O)NC(C)C)cc1 [Procarbazine] (1000 nM) has a normalised response of 101%.
Molecule O=C1NC(=O)[C@@H](c2cn3c4c(cccc24)CCC3)[C@@H]1c1c[nH]c2ccccc12 [Tivantinib] (100 nM) has a normalised response of 94.2%.
For O=C(O)CCCc1ccc(N(CCCl)CCCl)cc1 [Chlorambucil] (1000 nM), the normalised response was 98.2%.
Nc1ncnc2c1c(COc1cccc(Cl)c1)nn2C1CCOCC1 (1000 nM) was tested, and the normalised response was 98.3%.
Nc1nc(OCc2cc(Br)cs2)c2[nH]cnc2n1 [Lomeguatrib] (1000 nM) showed a normalised response of 100%.
CN(C)CCN1C(=O)c2cccc3cc(N)cc(c23)C1=O [Amonafide] (1000 nM) was tested, and the normalised response was 99.3%.

These molecules were tested on HCC1143 in the same assay as above. Conditions: incubation time: 72 h.
Method in brief: as §1
Work on c1ccc([C@H]2CN3CCSC3=N2)cc1 [Levamisole] (1000 nM) yielded a normalised response of 101%.
CN(C)C[C@@H]1CCn2cc(c3ccccc32)C2=C(C(=O)NC2=O)c2cn(c3ccccc23)CCO1 [Ruboxistaurin] (1000 nM) gave a normalised response of 109%.
Work on CCCCCCCCc1ccc(CCC(N)(CO)CO)cc1 [Fingolimod] (1000 nM) yielded a normalised response of 111%.
CNNCc1ccc(C(=O)NC(C)C)cc1 [Procarbazine] (1000 nM) gave a normalised response of 123%.
For O=C1NC(=O)[C@@H](c2cn3c4c(cccc24)CCC3)[C@@H]1c1c[nH]c2ccccc12 [Tivantinib] (100 nM), the normalised response was 60.7%.
O=C(O)CCCc1ccc(N(CCCl)CCCl)cc1 [Chlorambucil] (1000 nM) gave a normalised response of 98.2%.
Nc1ncnc2c1c(COc1cccc(Cl)c1)nn2C1CCOCC1 (1000 nM) showed a normalised response of 119%.
Nc1nc(OCc2cc(Br)cs2)c2[nH]cnc2n1 [Lomeguatrib] (1000 nM) gave a normalised response of 117%.
Work on CN(C)CCN1C(=O)c2cccc3cc(N)cc(c23)C1=O [Amonafide] (1000 nM) yielded a normalised response of 100%.

Each molecule was assayed on MCF-10A in the same assay as above. Conditions: incubation time: 72 h.
Method in brief: as §1
Molecule c1ccc([C@H]2CN3CCSC3=N2)cc1 [Levamisole] (1000 nM) has a normalised response of 113%.
Molecule CN(C)C[C@@H]1CCn2cc(c3ccccc32)C2=C(C(=O)NC2=O)c2cn(c3ccccc23)CCO1 [Ruboxistaurin] (1000 nM) has a normalised response of 103%.
For CCCCCCCCc1ccc(CCC(N)(CO)CO)cc1 [Fingolimod] (1000 nM), the normalised response was 57.9%.
For CNNCc1ccc(C(=O)NC(C)C)cc1 [Procarbazine] (1000 nM), the normalised response was 107%.
For O=C1NC(=O)[C@@H](c2cn3c4c(cccc24)CCC3)[C@@H]1c1c[nH]c2ccccc12 [Tivantinib] (100 nM), the normalised response was 113%.
Nc1nc(OCc2cc(Br)cs2)c2[nH]cnc2n1 [Lomeguatrib] (1000 nM) was tested, and the normalised response was 93.5%.
Molecule CN(C)CCN1C(=O)c2cccc3cc(N)cc(c23)C1=O [Amonafide] (1000 nM) has a normalised response of 100%.

The molecules below were run on HCC1937 in the same assay as above. Conditions: incubation time: 72 h.
Method in brief: as §1
Work on c1ccc([C@H]2CN3CCSC3=N2)cc1 [Levamisole] (1000 nM) yielded a normalised response of 108%.
Work on CN(C)C[C@@H]1CCn2cc(c3ccccc32)C2=C(C(=O)NC2=O)c2cn(c3ccccc23)CCO1 [Ruboxistaurin] (1000 nM) yielded a normalised response of 104%.
With CNNCc1ccc(C(=O)NC(C)C)cc1 [Procarbazine] (1000 nM) the normalised response was 105%.
O=C1NC(=O)[C@@H](c2cn3c4c(cccc24)CCC3)[C@@H]1c1c[nH]c2ccccc12 [Tivantinib] (100 nM) was tested, and the normalised response was 100%.
Work on O=C(O)CCCc1ccc(N(CCCl)CCCl)cc1 [Chlorambucil] (1000 nM) yielded a normalised response of 85.3%.
Nc1ncnc2c1c(COc1cccc(Cl)c1)nn2C1CCOCC1 (1000 nM) was tested, and the normalised response was 124%.
In the case of Nc1nc(OCc2cc(Br)cs2)c2[nH]cnc2n1 [Lomeguatrib] (1000 nM), the normalised response was 111%.
Work on CN(C)CCN1C(=O)c2cccc3cc(N)cc(c23)C1=O [Amonafide] (1000 nM) yielded a normalised response of 116%.
